Measurements as given in patent US9815787B2, “Sulfonamide derivative or pharmaceutically acceptable acid addition salt thereof” (UNIVERSITY OF TSUKUBA, priority 2013, dated 2017).

Biological target: T1, OX2R (Homo sapiens, UniProt O43614)
T1 construct: expressed in transfected cells; host or cells: CHO (Chinese hamster ovary) cells constitutively expressing the OX2R gene and NFAT-luciferase (CHOOX2R)
T1 sequence (O43614 1-444): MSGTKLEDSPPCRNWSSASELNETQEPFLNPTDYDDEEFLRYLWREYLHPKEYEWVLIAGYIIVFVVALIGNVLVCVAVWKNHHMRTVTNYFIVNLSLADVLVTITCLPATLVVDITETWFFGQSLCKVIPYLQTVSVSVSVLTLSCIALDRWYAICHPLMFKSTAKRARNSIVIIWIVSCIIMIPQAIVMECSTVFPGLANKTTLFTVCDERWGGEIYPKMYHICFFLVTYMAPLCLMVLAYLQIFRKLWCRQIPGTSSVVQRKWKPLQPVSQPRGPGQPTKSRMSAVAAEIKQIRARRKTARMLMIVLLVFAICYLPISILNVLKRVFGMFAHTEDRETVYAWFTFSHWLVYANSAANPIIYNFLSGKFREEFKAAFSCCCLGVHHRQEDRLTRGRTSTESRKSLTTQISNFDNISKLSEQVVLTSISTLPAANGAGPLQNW
Experiment: Evaluation of agonist activity against OX2R (CHOOX2R cells, Fura2AM fluorescence, FDSS3000)
Assay type: cell-based
Protocol: Evaluation of Agonist Activity Against OX2R
NFAT-luciferase gene and OX2R gene were each constitutively expressed in CHO cell, which is a cell line derived from Chinese hamster ovary to establish a cell line (CHOOX2R). The cells thereof were sown on a 96 well plate at 10000 cells/well, and cultured in a 5% FBS-added DMEM medium for 48 hr. […] After washing, HEPES buffer (75 μL) was added, a test compound solution (25 μL) was added, and changes in the fluorescence intensity were measured by FDSS3000 (Hamamatsu Photonics K.K.). The test compound was dissolved in DMSO (final concentration of DMSO was 1%), and diluted with HEPES buffer to a final concentration of 0.1 μM, 1.0 μM or 10 μM.

[1] = test compound 0.1 μM; relative to orexin-A as full agonist (100%); CHOOX2R cells
[2] = test compound 1.0 μM; relative to orexin-A as full agonist (100%); CHOOX2R cells
[3] = test compound 10 μM; relative to orexin-A as full agonist (100%); CHOOX2R cells
[4] = OX2R agonist activity; CHOOX2R cells
[5] = conversion with orexin-A as full agonist (maximum agonist activity 100%)
[6] = test compound 0.1 μM; CHOOX2R cells; relative to orexin-A as full agonist (100%)
[7] = test compound 1.0 μM; CHOOX2R cells; relative to orexin-A as full agonist (100%)
[8] = test compound 10 μM; CHOOX2R cells; relative to orexin-A as full agonist (100%)

Compound | Response (0.1 μM (%)) [1] | Response (1.0 μM (%)) [2] | Response (10 μM (%)) [3] | EC50 [4] | Emax [5] | Response (0.1 μM (%)) [6] | Response (1.0 μM (%)) [7] | Response (10 μM (%)) [8]
COc1cccc(C(=O)NCCNc2cccc(NS(=O)(=O)c3cc(-c4ccccc4OC)ccc3OC)c2)c1 [Example 13, N-(2-((3-(2′,4-dimethoxy-[1,1′-biphenyl]-3-ylsulfonamide)phenyl)amino)ethyl)-3-methoxybenzamide] | <5% | 64% | 99% |  |  |  |  | 
COc1ccc(-c2ccccc2F)cc1S(=O)(=O)Nc1cccc(NCCNC(=O)c2ccccc2Cl)c1 [Example 7, 2-chloro-N-(2-((3-(2′-fluoro-4-methoxy-[1,1′-biphenyl]-3-ylsulfonamide)phenyl)amino)ethyl)benzamide] | 10% | 62% | 145% |  |  |  |  | 
COc1ccc(-c2cccc(C(=O)N(C)C)c2)cc1S(=O)(=O)Nc1cccc(NCCNC(=O)c2ncccc2Cl)c1 [Example 51, 3-chloro-N-(2-((3-(3′-(dimethylcarbamoyl)-4-methoxy-[1,1′-biphenyl]-3-ylsulfonamido)phenyl)amino)ethyl)picolinamide] |  |  |  | 3280 nM | 87% | <5% | 9% | 87%
COc1ccc(-c2cccc(C(=O)N3CCCC3)c2)cc1S(=O)(=O)Nc1cccc(NCCNC(=O)c2c(F)cccc2F)c1 [Example 88, 2,6-difluoro-N-(2-((3-(4-methoxy-3′-(pyrrolidine-1-carbonyl)-[1,1′-biphenyl]-3-ylsulfonamido)phenyl)amino)ethyl)benzamide] |  |  |  |  |  | 76% | 100% | 86%
COc1ccc(N(C)C)cc1C(=O)NCCNc1cccc(NS(=O)(=O)c2cc(-c3ccccc3F)ccc2OC)c1 [Example 5, 5-(dimethylamino)-N-(2-((3-(2′-fluoro-4-methoxy-[1,1′-biphenyl]-3-ylsulfonamide)phenyl)amino)ethyl)-2-methoxybenzamide] | <5% | <5% | 23% |  |  |  |  | 
COc1ccc(-c2cccc(C(=O)N(C)C)c2)cc1S(=O)(=O)Nc1cccc(NCCNC(=O)c2ccccc2C(F)(F)F)c1 [Example 69, 4′-methoxy-N,N-dimethyl-3′-(N-(3-((2-(2-(trifluoromethyl)benzamido)ethyl)amino)phenyl)sulfamoyl)-[1,1′-biphenyl]-3-carboxamide] |  |  |  |  |  | 67% | 123% | 111%
COc1ccc(-c2cccc(C(=O)N(C)C)c2)cc1S(=O)(=O)Nc1cccc(NCCNC(=O)c2cc(F)cc(F)c2)c1 [Example 54, 3′-(N-(3-((2-(3,5-difluorobenzamido)ethyl)amino)phenyl)sulfamoyl)-4′-methoxy-N,N-dimethyl-[1,1′-biphenyl]-3-carboxamide] |  |  |  | 630 nM | 94% | 33% | 168% | 126%
COc1ccccc1C(=O)NCCNc1cccc(NS(=O)(=O)c2cc(-c3cccc(C(=O)N(C)C(C)(C)C)c3)ccc2OC)c1 [Example 76, N-(tert-butyl)-4′-methoxy-3′-(N-(3-((2-(2-methoxybenzamido)ethyl)amino)phenyl)sulfamoyl)-N-methyl-[1,1′-biphenyl]-3-carboxamide] |  |  |  |  |  | 24% | 95% | 98%
COc1cccc(C(=O)NCCNc2cccc(NS(=O)(=O)c3cc(-c4ncccc4F)ccc3OC)c2)c1 [Example 93, N-(2-((3-(5-(3-fluoropyridin-2-yl)-2-methoxyphenylsulfonamido)phenyl)amino)ethyl)-3-methoxybenzamide] |  |  |  |  |  | <5% | 33% | 73%
COc1cc(OC)cc(-c2ccc(OC)c(S(=O)(=O)Nc3cccc(NCCNC(=O)c4ccccc4OC)c3)c2)c1 [Example 36, 2-methoxy-N-(2-((3-(3′,4,5′-trimethoxy-[1,1′-biphenyl]-3-ylsulfonamide)phenyl)amino)ethyl)benzamide] |  |  |  |  |  | <5% | 11% | 68%
COc1ccc(-c2cccc(C(=O)N(C)C)c2)cc1S(=O)(=O)Nc1cccc(NCCNC(=O)c2cccc(F)c2)c1 [Example 52, 3′-(N-(3-((2-(3-fluorobenzamido)ethyl)amino)phenyl)sulfamoyl)-4′-methoxy-N,N-dimethyl-[1,1′-biphenyl]-3-carboxamide] |  |  |  | 783 nM | 84% | 40% | 79% | 64%
COc1ccc(-c2ccccc2F)cc1S(=O)(=O)Nc1cccc(NCCNC(=O)c2ccccn2)c1 [Example 14, N-(2-((3-(2′-fluoro-4-methoxy-[1,1′-biphenyl]-3-ylsulfonamide)phenyl)amino)ethyl)picolinamide] | <5% | <5% | 8% |  |  |  |  | 
COc1ccccc1C(=O)NCCNc1cccc(NS(=O)(=O)c2cc(-c3cc(Cl)cc(Cl)c3)ccc2OC)c1 [Example 27, N-(2-((3-(3′,5′-dichloro-4-methoxy-[1,1′-biphenyl]-3-ylsulfonamide)phenyl)amino)ethyl)-2-methoxybenzamide] | <5% | <5% | <5% |  |  |  |  | 
COc1ccccc1C(=O)NCCNc1cccc(NS(=O)(=O)c2cc(-c3c(F)cccc3F)ccc2OC)c1 [Example 17, N-(2-((3-(2′,6′-difluoro-4-methoxy-[1,1′-biphenyl]-3-ylsulfonamide)phenyl)amino)ethyl)-2-methoxybenzamide] | <5% | 18% | 182% |  |  |  |  | 
COc1ccc(-c2ccccc2F)cc1S(=O)(=O)Nc1cccc(NCCNC(=O)c2cccc(Cl)c2)c1 [Example 8, 3-chloro-N-(2-((3-(2′-fluoro-4-methoxy-[1,1′-biphenyl]-3-ylsulfonamide)phenyl)amino)ethyl)benzamide] | <5% | 9% | 46% |  |  |  |  | 
COc1cccc(C(=O)NCCNc2cccc(NS(=O)(=O)c3cc(-c4cc(F)ccc4Cl)ccc3OC)c2)c1 [Example 33, N-(2-((3-(2′-chloro-5′-fluoro-4-methoxy-[1,1′-biphenyl]-3-ylsulfonamide)phenyl)amino)ethyl)-3-methoxybenzamide] | <5% | 31% | 93% |  |  |  |  | 
COc1ccccc1C(=O)NCCNc1cccc(NS(=O)(=O)c2cc(-c3cccc(C(=O)N4CCCC4)c3)ccc2OC)c1 [Example 75, 2-methoxy-N-(2-((3-(4-methoxy-3′-(pyrrolidine-1-carbonyl)-1-[1,1′-biphenyl]-3-ylsulfonamide)phenyl)amino)ethyl)benzamide] |  |  |  | 77 nM | 87% | 49% | 87% | 76%
COc1ccc(-c2cccc(C(=O)N(C)C)c2)cc1S(=O)(=O)Nc1cccc(NCCNC(=O)c2sccc2Cl)c1 [Example 62, 3-chloro-N-(2-((3-(3′-(dimethylcarbamoyl)-4-methoxy-[1,1′-biphenyl]-3-ylsulfonamido)phenyl)amino)ethyl)thiophene-2-carboxamide] |  |  |  | 102 nM | 99% | 71% | 92% | 94%
